Results taken from patent US20250282834A1, “PEPTIDE INHIBITORS FOR CHROMODOMAIN HELICASE DNA BINDING PROTEIN 4 (CHD4)” (THE REGENTS OF THE UNIVERSITY OF CALIFORNIA, priority 2022, published 2025).
Non-standard residues stand in square brackets, D forms with d. Residues, ends and D or L forms follow the SMILES beside them. No end group written: not given here. *: point of attachment. Orn = NCCC[C@H](N)C(=O)O; Cbz = O=C(OCc1ccccc1)*; βAla = NCCC(=O)O; CH2F = FC*

Experiments:
full-length Flag-CHD4 = target: T1, full-length Flag-CHD4 (Homo sapiens, UniProt Q14839); assay: Biolayer interferometry (BLI) binding kinetics of peptides to CHD4; settings: N-biotinylated peptides immobilized, sequentially diluted full-length Flag-CHD4
T1 construct: made in house; host or cells: Sf9 (recombinant baculovirus)
T1 sequence (Q14839 whole entry): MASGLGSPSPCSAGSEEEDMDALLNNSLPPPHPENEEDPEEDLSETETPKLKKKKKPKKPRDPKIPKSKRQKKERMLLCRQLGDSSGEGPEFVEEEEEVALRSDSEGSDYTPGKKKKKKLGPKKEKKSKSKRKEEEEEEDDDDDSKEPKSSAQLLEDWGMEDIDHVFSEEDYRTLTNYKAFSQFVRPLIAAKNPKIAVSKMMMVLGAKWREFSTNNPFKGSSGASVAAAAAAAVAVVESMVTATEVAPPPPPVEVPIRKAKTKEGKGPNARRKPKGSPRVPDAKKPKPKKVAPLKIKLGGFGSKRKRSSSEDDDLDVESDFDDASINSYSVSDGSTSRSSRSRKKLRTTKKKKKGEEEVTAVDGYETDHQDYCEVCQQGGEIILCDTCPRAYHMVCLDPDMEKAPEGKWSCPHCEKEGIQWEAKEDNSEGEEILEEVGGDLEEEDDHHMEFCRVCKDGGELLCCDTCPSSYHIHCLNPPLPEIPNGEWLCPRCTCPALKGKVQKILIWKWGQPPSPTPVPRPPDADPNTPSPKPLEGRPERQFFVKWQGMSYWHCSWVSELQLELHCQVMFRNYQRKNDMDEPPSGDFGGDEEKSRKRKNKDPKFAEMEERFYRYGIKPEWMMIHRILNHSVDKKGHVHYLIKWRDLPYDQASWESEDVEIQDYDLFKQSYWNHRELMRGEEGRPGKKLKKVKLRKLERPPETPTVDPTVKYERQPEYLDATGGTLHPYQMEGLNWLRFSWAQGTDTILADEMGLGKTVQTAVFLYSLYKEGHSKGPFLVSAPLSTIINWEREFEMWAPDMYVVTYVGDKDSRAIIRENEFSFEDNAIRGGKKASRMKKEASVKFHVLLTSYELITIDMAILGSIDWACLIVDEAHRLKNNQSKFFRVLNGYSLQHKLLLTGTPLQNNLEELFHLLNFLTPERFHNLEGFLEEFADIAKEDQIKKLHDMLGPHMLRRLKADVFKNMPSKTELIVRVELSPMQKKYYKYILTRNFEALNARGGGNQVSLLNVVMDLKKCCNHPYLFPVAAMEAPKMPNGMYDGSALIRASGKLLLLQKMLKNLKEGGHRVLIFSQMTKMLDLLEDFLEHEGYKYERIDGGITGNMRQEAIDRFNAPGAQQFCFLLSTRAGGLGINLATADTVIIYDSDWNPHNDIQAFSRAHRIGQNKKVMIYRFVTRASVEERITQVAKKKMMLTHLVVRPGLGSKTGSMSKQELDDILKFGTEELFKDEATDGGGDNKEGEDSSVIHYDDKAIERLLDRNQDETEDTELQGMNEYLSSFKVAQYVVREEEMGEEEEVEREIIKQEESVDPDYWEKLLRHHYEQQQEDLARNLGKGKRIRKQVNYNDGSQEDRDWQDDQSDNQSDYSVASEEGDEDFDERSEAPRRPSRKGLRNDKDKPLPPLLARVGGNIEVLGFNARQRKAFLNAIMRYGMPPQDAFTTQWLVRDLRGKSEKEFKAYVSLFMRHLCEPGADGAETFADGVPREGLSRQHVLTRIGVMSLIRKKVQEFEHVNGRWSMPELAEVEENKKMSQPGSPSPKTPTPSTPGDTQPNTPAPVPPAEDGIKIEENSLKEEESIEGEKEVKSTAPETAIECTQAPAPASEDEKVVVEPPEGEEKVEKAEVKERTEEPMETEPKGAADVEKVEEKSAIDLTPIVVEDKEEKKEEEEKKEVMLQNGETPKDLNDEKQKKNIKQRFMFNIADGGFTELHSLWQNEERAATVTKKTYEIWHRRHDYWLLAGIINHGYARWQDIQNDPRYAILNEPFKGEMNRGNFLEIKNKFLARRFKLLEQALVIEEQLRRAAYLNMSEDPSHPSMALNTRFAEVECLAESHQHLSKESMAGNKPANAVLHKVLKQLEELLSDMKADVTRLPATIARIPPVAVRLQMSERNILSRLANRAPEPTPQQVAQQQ
Procedure: We next examined peptide binding sites on the CHD4 domain and measured affinity to further confirm the interaction. Multiple CHD4 deletion proteins were expressed and purified from recombinant baculovirus-infected Sf9 cells with Flag-agarose beads (FIG. 7a). An equal molecular amount of recombinant proteins was coated on an ELISA plate and increasing concentrations of biotinylated peptides were incubated. […] Binding affinity to the fill-length CHD4 was also calculated with Bio-Layer Interferometry (BLI). […] The N-biotinylated VGN73 or control peptides were first immobilized on a streptavidin-coated chip, and sequentially diluted full-length Flag-CHD4 proteins were applied. The interaction was then detected with interferometry.
To evaluate of binding kinetics of VGN73 and mutant peptide to CHD4, assays were carried out by biolayer interferometry (BLI) on Octet-Red 384 (ForteBio, CA, USA) at 30° C. with shaking at 1,000 RPM. Streptavidin (SA) tips (Sartorius, Goettingen, Germany) were dipped in 200 μL of biotinylated peptide (VGN73, mutant or TAT) solution (1 μM in 1× kinetic buffer) for the loading step. […] Binding kinetics was evaluated using a 1:1 binding model by ForteBio Data Analysis 8.1 software to obtain the dissociation constant KD.

CHD4 = target: T2, CHD4 (Homo sapiens, UniProt Q14839); assay: CHD4 and LANA protein expression by IFA and western blotting in PEL cells; type: cell-based; settings: for recovery of full-length CHD4 by inhibitor pretreatment before VGN73: BC3 cells, Z-VAD-FMK 50 μM or bortezomib 25 nM 1 hour, then VGN73 18 μM 8 hours
T2 construct: endogenous in cells; host or cells: BC3, BCBL-1
T2 sequence (Q14839 whole entry): as above
Procedure: FIG. 3 Effect of VGN73 on CHD4 and LANA protein in tissue culture. FIG. 3. Amount of CHD4 and LANA protein expression was evaluated by IFA. BC3 cells were treated with VGN73 (18 μM) or mutant peptide (18 μM) for 24 hours. Then the cells were stained with the indicated antibodies. The scale is indicated in the panel. Cell volume. CHD4 and LANA signal intensity were compared. **; p<0.01, ***; p<0.001 versus the VGN73 group. FIG. 3b. Amount of CHD4 and LANA protein expression in total cell lysates was evaluated by western blotting. BC3 and BCBL-1 cells were treated with VGN73 at a concentration of IC50 or starved condition for 24 hours. The respective protein band was confirmed by immunoblotting with anti-CHD4 and anti-LANA antibody. FIG. 3c. Evaluating of caspase and proteasome in CHD4 cleavage by VGN73. BC3 cells were pretreated with pan-caspase inhibitor. Z-VAD-FMK (50 μM) or proteasome inhibitor, bortezomib (25 nM) for 1 hour, followed by treated with VGN73 (18 μM) for 8 hours. The respective protein band was confirmed by immunoblotting with anti-CHD4 antibody.
BC3 cells and BCBL-1 cells were treated with VGN73 at the concentration of IC50 for 24 hours. These cells were also treated with VGN73 in media without FBS. To evaluate the effect of VGN73 on CHD4 and LANA proteins in tissue culture, IFA and western blotting were carried out, and these gene expressions were evaluated by RT-qPCR. Moreover, BC3 cells were pretreated with pan-caspase inhibitor, Z-VAD-FMK (50 μM) or proteasome inhibitor, bortezomib (25 nM) for 1 hour, followed by treated with VGN73 (18 μM) for 8 hours. BC3 cells were pretreated with lysosome inhibitor, chloroquine (7.5 μM) for 1 hour, followed by treated with VGN73 (18 μM) for 24 hours. […]
To evaluate subcellular peptide localization, IFA was carried out (FIG. 2d). […] The exposure settings and image acquisition protocols were fixed in each imaging study to enable quantitative analysis. Mean LANA and CHD4 fluorescence (measured in arbitrary units, or A.U.) per cell was subsequently calculated using onboard software and/or NIH Image (FIG. 3a(b)). […]

[1] = test system: primary effusion lymphoma (PEL) cells (BC3, BCBL-1); type: cell-based
Procedure: FIG. 4 VGN73 inhibits cell growth on various cancer cell types and induces apoptosis and autophagy in BC3 cells. FIG. 4a. MT assays were performed with the indicated cell lines treated with various VGN73 and mutant peptide concentrations for 24 hours. The OD of mock-treated samples were set as 100%, and OD from detergent-treated cells were set as 0%. Mean percentage viability±SD was calculated for each treatment (n=3 samples/treatment). FIG. 4b. VGN73 induces apoptosis. BC3 cells were incubated with of VGN73 (18 μM) for 0, 1, 4, and 24 hours, followed by measurements of percentage apoptosis induction (Annexin V staining) by flow cytometry. Median percentage apoptosis was calculated for each treatment time (n=3 samples/treatment time) (a). […] Cleaved caspase 3 were calculated by normalizing to untreated sample, and untreated sample set as 100% (b). […] Median percentage apoptosis was calculated for each treatment time (n=3 samples/treatment) (a). […] ratios were calculated by normalizing to untreated sample, and untreated sample set as 100% (b). […] Cell viability were determined by MTT assay (n=5 samples/treatment). *; p<0.05. **; p<0.01 versus the control group, #; p<0.05 versus the Z-VAD-FMK group.
The cytotoxic activity of VGN73 and mutant peptide were measured using the MTT assay. […] The optical densities (ODs) were measured at 570 nm with a Benchmark Plus Microplate Spectrophotometer (Bio-Rad). […]

Row | Compound | binding to CHD4 by BLI (full-length Flag-CHD4) | CHD4 cleavage (western blotting, total cell lysates) (CHD4; BC3 and BCBL-1 cells, IC50 concentration, 24 hours) | cancer cell death in vitro tissue culture [1] | recovery of full-length CHD4 by inhibitor pretreatment before VGN73 (CHD4) | rescue from VGN73 cell death by Z-VAD-FMK pretreatment (MTT) ([1]; BC3 and BCBL-1, Z-VAD-FMK 40 μM 1 hr, VGN73 18 or 13 μM)
1 | {d-Arg}KKRR{ORN]RRR{β-Ala} (RKKRRXRRRA; d-Arg, ornithine, beta-Ala non-natural residues; Description of sequence: modified TAT amino acid sequence; SITE 1 d-arginine; MOD_RES 6 ORN; MOD_RES 10 beta-alanine) | not mutant or TAT alone binds to CHD4 |  |  |  | 
2 | {d-Arg}KKRR{ORN}RRR{β-Ala}AKHAVISAGNDPYGLKK ([dR]KKRR[Orn]RRR[βAla]AKHAVISAGNDPYGLKK) [mutant peptide, mutant peptide with three amino acid changes at conserved amino acids] | mutations eliminated the interaction | did not have such effects | not mutant peptide |  | 
3 | COC(=O)C[C@H](NC(=O)[C@H](C)NC(=O)[C@@H](NC(=O)OCc1ccccc1)C(C)C)C(=O)CF [Z-VAD-FMK] (Cbz-Val-Ala-Asp(OMe)-CH2F) |  |  |  | recovered full-length CHD4 | partially rescued BC3 and BCBL-1 from cell death
4 | CC(C)C[C@H](NC(=O)[C@H](Cc1ccccc1)NC(=O)c1cnccn1)B(O)O [proteasome inhibitor, bortezomib] |  |  |  | not a proteasome inhibitor | 
